# Assay results taken from ChEMBL document CHEMBL4007458, “1-ethyl-3-(6-methylphenanthridine-8-il) urea modulates TLR3/9 activation and induces selective pro-inflammatory cytokine expression in vitro” (Bioorg Med Chem Lett, 2017).
# Calls of active or inactive are those of the source. No cut-off for these calls is given here.
# How the values were obtained:
# PBMC [1] = assay: Immunomodulatory activity in human PBMC assessed as induction of IL-6 secretion at 16 uM after 24 hrs by ELISA; assay type: functional, cell-based
# [2] = biological target: T1, Toll-like receptor 7 (Homo sapiens) (UniProt Q9NYK1); assay: Activation of human TLR7 expressed in HEK293 cell assessed as induction of NF-kB after 18 hrs by luciferase reporter gene assay; assay type: cell-based
# T1 sequence (whole entry): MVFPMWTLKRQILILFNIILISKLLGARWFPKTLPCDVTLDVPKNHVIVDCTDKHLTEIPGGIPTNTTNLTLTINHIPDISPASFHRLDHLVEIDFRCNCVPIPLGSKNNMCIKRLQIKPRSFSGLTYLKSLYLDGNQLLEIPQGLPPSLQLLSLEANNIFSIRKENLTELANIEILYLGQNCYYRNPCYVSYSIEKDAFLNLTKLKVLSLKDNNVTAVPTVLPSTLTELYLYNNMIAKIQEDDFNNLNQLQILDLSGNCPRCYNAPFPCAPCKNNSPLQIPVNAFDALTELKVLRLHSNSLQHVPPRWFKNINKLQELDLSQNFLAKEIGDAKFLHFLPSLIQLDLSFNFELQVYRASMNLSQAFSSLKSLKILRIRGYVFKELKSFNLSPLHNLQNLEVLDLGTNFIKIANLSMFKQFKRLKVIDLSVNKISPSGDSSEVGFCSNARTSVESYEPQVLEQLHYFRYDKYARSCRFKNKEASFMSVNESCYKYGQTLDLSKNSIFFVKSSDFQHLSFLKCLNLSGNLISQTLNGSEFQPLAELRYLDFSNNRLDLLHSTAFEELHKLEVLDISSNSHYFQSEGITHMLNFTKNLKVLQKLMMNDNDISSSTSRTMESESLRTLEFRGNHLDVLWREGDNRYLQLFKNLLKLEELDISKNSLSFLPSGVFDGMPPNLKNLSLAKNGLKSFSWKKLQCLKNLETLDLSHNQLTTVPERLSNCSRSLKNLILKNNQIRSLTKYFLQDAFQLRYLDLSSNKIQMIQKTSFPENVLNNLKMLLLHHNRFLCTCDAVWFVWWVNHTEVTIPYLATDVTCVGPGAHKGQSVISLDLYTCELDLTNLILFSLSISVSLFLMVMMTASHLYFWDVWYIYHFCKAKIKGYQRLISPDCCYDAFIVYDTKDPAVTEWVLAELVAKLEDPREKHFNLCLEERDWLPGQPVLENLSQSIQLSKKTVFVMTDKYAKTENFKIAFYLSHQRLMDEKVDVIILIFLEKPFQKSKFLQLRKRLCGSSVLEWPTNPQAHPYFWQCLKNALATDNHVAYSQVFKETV
# [3] = biological target: T2, Toll-like receptor 8 (Homo sapiens) (UniProt Q9NR97); assay: Activation of human TLR8 expressed in HEK293 cells assessed as induction of NF-kB after 18 hrs by luciferase reporter gene assay; assay type: cell-based
# T2 sequence (whole entry): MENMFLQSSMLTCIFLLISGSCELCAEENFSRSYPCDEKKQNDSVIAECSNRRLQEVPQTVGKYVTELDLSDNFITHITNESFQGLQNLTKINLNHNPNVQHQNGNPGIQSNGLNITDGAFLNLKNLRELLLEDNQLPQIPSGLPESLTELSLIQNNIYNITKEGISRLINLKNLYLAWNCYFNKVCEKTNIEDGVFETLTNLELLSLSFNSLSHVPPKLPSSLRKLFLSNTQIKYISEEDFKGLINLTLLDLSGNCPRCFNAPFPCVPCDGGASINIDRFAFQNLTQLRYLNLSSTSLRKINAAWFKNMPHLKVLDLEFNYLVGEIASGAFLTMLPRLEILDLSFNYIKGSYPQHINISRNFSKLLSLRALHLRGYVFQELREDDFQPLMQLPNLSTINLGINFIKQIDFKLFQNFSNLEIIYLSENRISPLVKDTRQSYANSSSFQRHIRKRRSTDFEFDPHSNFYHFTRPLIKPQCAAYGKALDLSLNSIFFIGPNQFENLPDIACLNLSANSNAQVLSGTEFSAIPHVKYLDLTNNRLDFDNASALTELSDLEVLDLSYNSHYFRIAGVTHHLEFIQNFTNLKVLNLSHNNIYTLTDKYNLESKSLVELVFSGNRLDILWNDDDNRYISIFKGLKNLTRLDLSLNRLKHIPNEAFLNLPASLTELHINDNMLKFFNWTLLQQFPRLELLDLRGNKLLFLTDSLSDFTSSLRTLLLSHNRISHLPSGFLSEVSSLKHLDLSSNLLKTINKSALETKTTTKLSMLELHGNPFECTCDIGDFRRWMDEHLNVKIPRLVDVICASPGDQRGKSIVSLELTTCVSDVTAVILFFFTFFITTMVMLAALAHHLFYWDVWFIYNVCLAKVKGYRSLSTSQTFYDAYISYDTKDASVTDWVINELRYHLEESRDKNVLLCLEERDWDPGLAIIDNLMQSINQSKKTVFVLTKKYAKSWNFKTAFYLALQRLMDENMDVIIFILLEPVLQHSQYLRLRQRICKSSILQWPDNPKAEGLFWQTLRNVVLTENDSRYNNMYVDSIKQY
# [4] = Binding affinity to synthetic ODN2006 assessed as ICD band around 301 nm at 3 x 10^5 10^-6mol/dm3 at pH 7 by CD spectroscopic method
# [5] = biological target: T3, Toll-like receptor 9 (Homo sapiens) (UniProt Q9NR96); assay: Inhibition of human TLR9 activation expressed in HEK293 cells assessed as reduction in ODN2006-induced NF-kB activation up to 5 uM after 18 hrs by luciferase reporter gene assay; assay type: cell-based
# T3 sequence (whole entry): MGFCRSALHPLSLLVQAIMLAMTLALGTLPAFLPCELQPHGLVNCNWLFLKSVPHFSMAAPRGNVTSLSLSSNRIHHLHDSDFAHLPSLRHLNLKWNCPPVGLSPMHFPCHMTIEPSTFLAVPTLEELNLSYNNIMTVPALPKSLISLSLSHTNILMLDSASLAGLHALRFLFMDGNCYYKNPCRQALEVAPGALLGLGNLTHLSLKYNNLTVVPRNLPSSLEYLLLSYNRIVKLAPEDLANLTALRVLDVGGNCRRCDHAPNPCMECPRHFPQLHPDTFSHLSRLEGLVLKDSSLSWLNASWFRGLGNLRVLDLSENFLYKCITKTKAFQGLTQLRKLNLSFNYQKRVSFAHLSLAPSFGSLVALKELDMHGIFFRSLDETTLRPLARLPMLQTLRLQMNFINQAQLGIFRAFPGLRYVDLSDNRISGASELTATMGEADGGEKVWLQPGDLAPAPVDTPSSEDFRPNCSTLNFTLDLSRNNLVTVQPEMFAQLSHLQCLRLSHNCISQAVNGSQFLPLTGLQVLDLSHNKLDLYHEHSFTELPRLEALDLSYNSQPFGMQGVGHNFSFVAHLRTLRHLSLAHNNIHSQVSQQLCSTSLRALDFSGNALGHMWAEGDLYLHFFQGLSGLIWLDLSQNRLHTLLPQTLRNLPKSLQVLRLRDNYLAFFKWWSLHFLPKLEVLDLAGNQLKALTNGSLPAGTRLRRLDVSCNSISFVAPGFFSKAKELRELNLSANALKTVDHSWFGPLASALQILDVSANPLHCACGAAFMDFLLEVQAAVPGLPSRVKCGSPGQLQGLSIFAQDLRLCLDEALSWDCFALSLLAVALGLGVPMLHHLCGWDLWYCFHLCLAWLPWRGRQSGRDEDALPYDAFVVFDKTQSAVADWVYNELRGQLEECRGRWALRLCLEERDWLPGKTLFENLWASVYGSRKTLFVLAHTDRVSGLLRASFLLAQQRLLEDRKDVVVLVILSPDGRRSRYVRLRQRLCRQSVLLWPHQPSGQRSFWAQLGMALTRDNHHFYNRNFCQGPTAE
# [6] = Binding affinity to synthetic ODN2006 assessed as ICD band around 300 nm at 3 x 10^5 10^-6mol/dm3 at pH 5.7 by CD spectroscopic method
# PBMC [7] = assay: Immunomodulatory activity in human PBMC assessed as induction of IL-6 secretion at 10 uM after 24 hrs by ELISA; assay type: functional, cell-based
# PBMC [8] = assay: Immunomodulatory activity in human PBMC assessed as induction of IL-8 secretion after 24 hrs by ELISA; assay type: functional, cell-based
# PBMC [9] = assay: Immunomodulatory activity in human PBMC assessed as induction of TNFalpha secretion at 10 uM after 24 hrs by ELISA; assay type: functional, cell-based
# PBMC [10] = assay: Immunomodulatory activity in human PBMC assessed as induction of INFalpha secretion at 10 uM after 24 hrs by ELISA; assay type: functional, cell-based
# PBMC [11] = assay: Immunomodulatory activity in human PBMC assessed as induction of IL-1beta secretion at 10 uM after 24 hrs by ELISA; assay type: functional, cell-based
# [12] = Binding affinity to synthetic ODN2006 assessed as ratio of fluorescence intensity of compound-ODN complex to fluorescence intensity of compound at 0.01 mol/dm3 at pH 5.7 by fluorescence spectroscopic method
# [13] = Binding affinity to synthetic ODN2006 assessed as ratio of fluorescence intensity of compound-ODN complex to fluorescence intensity of compound at 0.01 mol/dm3 at pH 7 by fluorescence spectroscopic method
# [14] = Binding affinity to synthetic ODN2006 at 0.01 mol/dm3 at pH 5.7 by fluorescence spectroscopic method
# [15] = Binding affinity to synthetic ODN2006 at 0.01 mol/dm3 at pH 7 by fluorescence spectroscopic method
# [16] = Binding affinity to synthetic ODN2216 assessed as ratio of fluorescence intensity of compound-ODN complex to fluorescence intensity of compound at 0.01 mol/dm3 at pH 5.7 by fluorescence spectroscopic method
# [17] = Binding affinity to synthetic ODN2216 at 0.01 mol/dm3 at pH 5.7 by fluorescence spectroscopic method
# [18] = Solubility of the compound in water; assay type: physicochemical; details: buffer
# [19] = biological target: T1, Toll-like receptor 7 (Homo sapiens); assay: Activation of human TLR7 expressed in HEK293 cells assessed as induction of NF-kB at 0.1 to 5 uM after 18 hrs by luciferase reporter gene assay; assay type: cell-based
# [20] = biological target: T2, Toll-like receptor 8 (Homo sapiens); assay: Activation of human TLR8 expressed in HEK293 cells assessed as induction of NF-kB at 0.1 to 5 uM after 18 hrs by luciferase reporter gene assay; assay type: cell-based
# THP-1 = assay: Cytotoxicity against human THP1 cells assessed as reduction in cell viability up to 10 uM after 24 hrs by MTT assay; assay type: cell-based; details: thp-1, 24 h
# HEK293 = assay: Cytotoxicity against HEK293 cells assessed as reduction in cell viability up to 10 uM after 24 hrs by MTT assay; assay type: cell-based; details: human, hek293, 24 h
# PBMC [21] = assay: Cytotoxicity against human PBMC assessed as reduction in cell viability up to 10 uM after 24 hrs by MTT assay; assay type: cell-based
# [22] = Binding affinity to synthetic ODN2216 assessed as negative ICD band around 240 to 340 nm at 3 x 10^5 10^-6mol/dm3 at pH 5.7 by CD spectroscopic method
# [23] = Binding affinity to synthetic ODN2216 assessed as negative ICD band around 240 to 340 nm at 3 x 10^5 10^-6mol/dm3 at pH 7 by CD spectroscopic method
# [24] = biological target: T3, Toll-like receptor 9 (Homo sapiens); assay: Inhibition of TLR9 in human PBMC assessed as reduction in ODN2216-stimulated IFNalpha expression at 1 to 10 uM by ELISA
# [25] = biological target: T3, Toll-like receptor 9 (Homo sapiens); assay: Inhibition of TLR9 in human PBMC assessed as reduction in ODN2006-stimulated IL-8 expression at 1 to 10 uM by ELISA
# [26] = biological target: Toll-like receptor 3 (Homo sapiens) (UniProt O15455); assay: Inhibition of TLR3 in human PBMC assessed as reduction in poly(I:C)-stimulated IL-6 expression at 1 uM by ELISA relative to control
# [27] = biological target: Toll-like receptor 3 (Homo sapiens) (UniProt O15455); assay: Inhibition of human TLR3 expressed in HEK293 cells assessed as reduction in poly(I:C)-induced NF-kB activation up to 5 uM after 18 hrs by luciferase reporter gene assay; assay type: cell-based
# [28] = biological target: T3, Toll-like receptor 9 (Homo sapiens); assay: Inhibition of TLR9 in PMA-induc ed human THP1 cells assessed as reduction in ODN2216-induced TNFalpha by ELISA
# [29] = biological target: Toll-like receptor 3 (Homo sapiens) (UniProt O15455); assay: Inhibition of TLR3 in human PBMC assessed as reduction in poly(I:C)-stimulated IL-6 expression at 1 to 10 uM by ELISA relative to control
# PBMC [30] = assay: Immunomodulatory activity in human PBMC assessed as induction of IL-6 secretion at 5 uM after 24 hrs by ELISA; assay type: functional, cell-based
# Toll-like receptor 3 (Homo sapiens), sequence (O15455 whole entry): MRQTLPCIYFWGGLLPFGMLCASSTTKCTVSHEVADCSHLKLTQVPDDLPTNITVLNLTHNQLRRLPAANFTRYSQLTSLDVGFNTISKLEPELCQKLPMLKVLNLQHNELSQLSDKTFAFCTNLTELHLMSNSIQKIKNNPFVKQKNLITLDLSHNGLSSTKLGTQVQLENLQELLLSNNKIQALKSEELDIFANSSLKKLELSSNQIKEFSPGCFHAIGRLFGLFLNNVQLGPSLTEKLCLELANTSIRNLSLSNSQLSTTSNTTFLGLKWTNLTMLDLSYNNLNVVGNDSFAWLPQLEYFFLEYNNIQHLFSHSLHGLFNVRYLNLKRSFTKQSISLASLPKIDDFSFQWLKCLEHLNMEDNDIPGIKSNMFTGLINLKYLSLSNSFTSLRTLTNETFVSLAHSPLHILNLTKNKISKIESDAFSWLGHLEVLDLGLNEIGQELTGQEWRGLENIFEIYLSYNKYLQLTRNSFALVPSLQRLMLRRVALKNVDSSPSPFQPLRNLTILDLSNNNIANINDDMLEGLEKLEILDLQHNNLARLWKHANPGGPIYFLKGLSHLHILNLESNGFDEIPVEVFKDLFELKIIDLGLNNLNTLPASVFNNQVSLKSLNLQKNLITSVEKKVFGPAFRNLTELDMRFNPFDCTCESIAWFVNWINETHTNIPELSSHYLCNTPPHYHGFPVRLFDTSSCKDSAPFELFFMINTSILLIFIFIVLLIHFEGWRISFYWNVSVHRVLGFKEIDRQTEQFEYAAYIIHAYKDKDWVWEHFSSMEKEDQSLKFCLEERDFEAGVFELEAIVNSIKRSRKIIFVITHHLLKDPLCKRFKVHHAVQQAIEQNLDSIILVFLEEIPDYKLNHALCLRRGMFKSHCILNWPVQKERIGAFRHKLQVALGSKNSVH
smiles,measurement,setting,value
CCOCc1nc2c(N)nc3ccccc3c2n1CC(C)(C)O,Activity,PBMC [1],Active
CCOCc1nc2c(N)nc3ccccc3c2[nH]1,Activity,[2],Active
same,Activity,[3],Active
CCNC(=O)Nc1ccc2c(c1)c(C)nc1ccccc12,Activity,[4],Active
same,inhibition,[5],Active
same,Activity,[6],inactive
same,Activity,PBMC [7],Active
same,Activity,PBMC [8],Dose-dependent effect
same,Activity,PBMC [9],Active
same,Activity,PBMC [10],inactive
same,Activity,PBMC [11],inactive
same,Ratio,[12],0.2
same,Ratio,[13],0.6
same,log Ks,[14],4.5
same,log Ks,[15],5.4
same,Ratio,[16],0.73
same,log Ks,[17],4.04
same,solubility,[18],Insoluble
same,Activity,[19],inactive
same,Activity,[20],inactive
same,Activity,THP-1,Non-Toxic
same,Activity,HEK293,Non-Toxic
same,Activity,PBMC [21],Non-Toxic
same,Activity,[22],Active
same,Activity,[23],Active
same,inhibition,[24],Active
same,inhibition,[25],inactive
same,inhibition,[26],50%
same,inhibition,[27],Active
same,inhibition,[28],Dose-dependent effect
same,inhibition,[29],Active
CC(C)Cn1cnc2c(N)nc3ccccc3c21,Activity,PBMC [30],Active
